PubChem BioAssay (NCI)
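How tested: cells in 96-well plates exposed to compound for 48 hours at five concentrations. Here, GI50 denotes the concentration required for 50% inhibition of growth. The concentration for full growth arrest is given as TGI.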

What was measured:
Experiment in all cases: inhibition of tumour cell growth, NCI panel, 48 h
[1] = test system: A549 NSCLC
[2] = test system: IGROV1 ovarian
[3] = test system: K-562 leukemia
[4] = test system: LOX IMVI melanoma
[5] = test system: MALME-3M melanoma
[6] = test system: OVCAR-5 ovarian
[7] = test system: OVCAR-8 ovarian
[8] = test system: UACC-257 melanoma
[9] = test system: UO-31 renal
[10] = test system: T-47D breast

SMILES | TGI [1] | TGI [2] | TGI [3] | TGI [4] | TGI [5] | TGI [6] | TGI [7] | TGI [8] | TGI [9] | GI50 [1] | GI50 [2] | GI50 [3] | GI50 [4] | GI50 [6] | GI50 [7] | GI50 [10] | TGI [10] | GI50 [9] | GI50 [5] | GI50 [8]
O=C1OC(c2ccccc2)=N/C1=C\c1ccc2ccccc2c1 | > 100 µM | > 100 µM | > 100 µM | > 100 µM | > 100 µM | > 100 µM | > 100 µM | > 100 µM | > 100 µM |  |  |  |  |  |  |  |  |  |  | 
Nc1nc(Cl)cc(NCCCCCNc2cc(Cl)nc(N)n2)n1 | > 100 µM | > 100 µM | > 100 µM | > 100 µM |  | > 100 µM | > 100 µM | > 100 µM | > 100 µM |  |  |  |  |  |  |  |  |  |  | 
COc1ccc(CCN2CCCN3C2=Nc2ccccc2S3(=O)=O)cc1 | > 100 µM | > 100 µM | > 100 µM | > 100 µM |  | > 100 µM | > 100 µM |  | > 100 µM | 0.8 µM | 1.51 µM | 0.196 µM | 0.669 µM | 20.2 µM | 0.802 µM | 0.56 µM | > 100 µM | 0.913 µM |  | 
CN(C)CCCNC(=O)c1ccc2oc3cc4ccccc4c(=O)n3c2c1 | > 50 µM | > 50 µM | > 50 µM | 27 µM | > 50 µM |  | > 50 µM | > 50 µM | > 50 µM | 27.6 µM | 18.4 µM | 33.8 µM | 10.8 µM |  | 40.5 µM | > 50 µM | > 50 µM | 18.3 µM | > 50 µM | 20.6 µM
CCOC(=O)Cc1nc2ccccc2s1 | 54.2 µM | > 100 µM | 71.9 µM | 32.4 µM | 31.2 µM | 57 µM | 32.8 µM | 33.2 µM | 29.7 µM |  |  |  |  |  |  |  |  |  |  | 
NC(=NCCCC1(c2ccccc2)CCCC1)Nc1ccc(Cl)cc1 | 3.61 µM |  | 4.45 µM | 2.93 µM | 3.66 µM |  | 3.8 µM | 3.56 µM | 3 µM | 1.89 µM |  | 1.55 µM | 1.58 µM |  | 1.9 µM |  |  | 1.5 µM | 1.69 µM | 1.82 µM
COc1ccccc1/C=C/C(=O)c1c(O)cc2occc2c1OC | > 100 µM | > 100 µM |  | > 100 µM | 80.6 µM | > 100 µM | > 100 µM | > 100 µM | > 100 µM | > 100 µM | 26 µM |  | 30.1 µM | > 100 µM | 53.8 µM | 55.9 µM | > 100 µM | > 100 µM | 18.9 µM | > 100 µM
COc1ccc2c(c1O)C(=O)C(CCC(=O)O)CC2 (stereo unspecified) | > 100 µM | > 100 µM |  | > 100 µM |  |  | > 100 µM | > 100 µM |  |  |  |  |  |  |  |  |  |  |  | 
O=C(NCCc1ccccc1)C(c1ccccc1)(c1ccccc1)c1ccccc1 | 5.59 µM | 70 µM | > 100 µM |  |  | 50.6 µM | 4.44 µM |  | 43.4 µM | 1.75 µM | 28.8 µM | 44.9 µM |  | 3.91 µM | 1.62 µM | 30.4 µM | > 100 µM | 6.32 µM |  | 
